These results are taken from patent US6610744B2, “Methods of treatment with compounds having RARα receptor specific or selective activity” (Allergan, Inc., priority 1995, dated 2003).

Data set [1] in a line: Guinea pig osmotic pump toxicity experiment. The data set is classed as in vivo. The note with it: guinea pigs, intraperitoneal osmotic pump, 14 days; for depression of weight gain relative to control: FIG. 8. As for the experimental part: In another experiment three-week old male Hartley guinea pigs were implanted intraperitonially with osmotic pumps containing 20% DMSO/80 polyethylene glycol (vehicle) or Compound 42 at concentrations of 4.4, 13.3 or 40 mg/ml in vehicle. Based on the initial body weights and known pumping rate, approximate doses of 0, 2, 6, and 18 mg/kg/day doses of Compound 42 are estimated. Body weights and clinical observations were recorded at least every other day for 14 days post-implantation. The guinea pigs were euthanized after 14 days, and the pumps were examined for possible failure.

A further data set concerns the target T1, RXRβ (Homo sapiens, UniProt P28702).
T1 construct: made in house; host or cells: Baculovirus expression (insect cell extract)
T1 sequence (P28702 1-533): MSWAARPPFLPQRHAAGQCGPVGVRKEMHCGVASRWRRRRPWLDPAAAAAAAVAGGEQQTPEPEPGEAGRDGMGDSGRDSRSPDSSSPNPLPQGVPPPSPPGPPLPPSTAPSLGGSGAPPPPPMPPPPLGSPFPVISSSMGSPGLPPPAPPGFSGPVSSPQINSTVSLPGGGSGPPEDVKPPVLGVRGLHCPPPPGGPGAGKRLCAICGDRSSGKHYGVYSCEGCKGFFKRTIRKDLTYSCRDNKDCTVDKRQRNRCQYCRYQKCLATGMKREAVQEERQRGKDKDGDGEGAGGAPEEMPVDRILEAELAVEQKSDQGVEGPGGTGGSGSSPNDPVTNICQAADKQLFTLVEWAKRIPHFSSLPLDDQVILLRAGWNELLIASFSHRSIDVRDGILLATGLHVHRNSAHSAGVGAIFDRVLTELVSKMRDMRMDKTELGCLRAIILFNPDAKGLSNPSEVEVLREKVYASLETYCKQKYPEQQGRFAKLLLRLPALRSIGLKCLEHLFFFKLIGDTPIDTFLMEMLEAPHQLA
Description: Ligand binding assay, RXRβ. As to the method:
(§1) All binding assays were performed in a similar fashion. All six receptor types were derived from the expressed receptor type (RARα, β, Γ and RXRα, β, Γ) expressed in Baculovirus. Stock solutions of all compounds were prepared as 10 mM ethanol solutions and serial dilutions carried out into 1:1 DMSO; ethanol. Assay buffers consisted of the following for all six receptor assays: 8% glycerol, 120 mM KCl 8 mM Tris, 5 mM CHAPS 4 mM DTT and 0.24 mM PMSF, pH-7.4@ room temperature.
(§2) All receptor binding assays were performed in the same manner. The final assay volume was 250 μl and contained from 10-40 μg of extract protein depending on receptor being assayed along with 5 nM of [^3H] all-trans retinoic acid or 10 nM [^3H] 9-cis retinoic acid and varying concentrations of competing ligand at concentrations that ranged from 0-10^−5 M. The assays were formatted for a 96 well minitube system. Incubations were carried out at 4° C. until equilibrium was achieved. Non-specific binding was defined as that binding remaining in the presence of 1000 nM of the appropriate unlabeled retinoic acid isomer. At the end of the incubation period, 50 μl of 6.25% hydroxyapitite was added in the appropriate wash buffer. The wash buffer consisted of 100 mM KCl, 10 mM Tris and either 5 mM CHAPS (RXRα, β, Γ) or 0.5% Triton X-100 (RARα, β, Γ). The mixture was vortexed and incubated for 10 minutes at 4° C., centrifuged and the supernatant removed. The hydroxyapitite was washed three more times with the appropriate wash buffer. The receptor-ligand complex was adsorbed by the hydroxyapitite. The amount of receptor-ligand complex was determined by liquid scintillation counting of hydroxyapitite pellet.
(§3) After correcting for non-specific binding, IC50 values were determined. […] The IC50 value was determined graphically from a loglogit plot of the data. The […] were determined by application of the Cheng-Prussof equation to the IC50 values, the labeled ligand concentration and the Kd of the labeled ligand.
(§4) The results of ligand binding assay are expressed in Kd numbers. (See Cheng et al. Biochemical Pharmacology Vol. 22 pp 3099-3108, expressly incorporated herein by reference.)

The next data set has as its target T2, RXRΓ (Homo sapiens, UniProt P48443).
T2 construct: made in house; host or cells: Baculovirus expression (insect cell extract)
T2 sequence (P48443 1-463): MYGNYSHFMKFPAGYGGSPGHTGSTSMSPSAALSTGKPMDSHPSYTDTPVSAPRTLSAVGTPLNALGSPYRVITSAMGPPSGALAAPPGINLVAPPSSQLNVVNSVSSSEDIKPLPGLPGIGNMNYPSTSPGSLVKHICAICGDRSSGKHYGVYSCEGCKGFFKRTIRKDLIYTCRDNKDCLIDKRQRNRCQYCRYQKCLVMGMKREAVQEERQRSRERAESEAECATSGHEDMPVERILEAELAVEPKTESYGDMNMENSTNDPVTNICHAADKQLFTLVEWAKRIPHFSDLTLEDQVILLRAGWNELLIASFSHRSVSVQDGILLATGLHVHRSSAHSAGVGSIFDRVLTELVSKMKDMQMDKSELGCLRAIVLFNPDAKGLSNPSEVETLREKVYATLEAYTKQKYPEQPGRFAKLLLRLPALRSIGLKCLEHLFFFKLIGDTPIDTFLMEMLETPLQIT
Briefly: Ligand binding assay, RXRΓ. As for the experimental part: as §1, §2, §3, §4

As for `CC(C)(C)c1cc(C(=O)Nc2ccc(C(=O)O)c(F)c2)cc(C(C)(C)C)n1` [Compound 42], the mucocutaneous toxicity entry in data set [1] (any dose (2, 6, 18 mg/kg/day)) was “no signs of mucocutaneous toxicity”. Also, the “depression of weight gain relative to control” value in data set [1] (high dose (18 mg/kg/day)) was “Significant depression of weight gain”; in data set [1] (lower and middle doses (approx. 2 and 6 mg/kg/day)) it was “no, or only statistically insignificant depression of weight gain”. Further, the dissociation constant Kd at RXRβ and on RXRΓ was over 1 µM throughout.
